# Experimental data published in US20240058318A1, “DEGRADING PKCB1 TO TREAT CANCER” (Mayo Foundation for Medical Education and Research, priority 2020, published 2024).
# “And” between values parts separate entries of the source, which are not always exact repeats. Equal values may be shown once.
# Tests used:
# MDAMB436 cells = experiment: Crystal violet (CV) proliferation assay, MDAMB436; format: cell-based; details: MDAMB436 (PKCß1 low, Rb negative), 2000 cells
# Method: (§1) Cell proliferation rates were determined using crystal violet assays. […] Cells were fixed with 25% glutaraldehyde for 10 minutes with shaking, washed 5 times with distilled water, stained with a 1% crystal violet solution (solubilized in 25% methanol) for 10 minutes, washed again 5 times and allowed to dry. De-staining was performed using […] sodium citrate in 50% ethanol followed by quantification using a 96 well spectrophotometer set at an absorbance of 550 nm.
# BT549 cells = experiment: Crystal violet (CV) proliferation assay, BT549; format: cell-based; details: BT549 (PKCß1 high, Rb negative), 2000 cells
# Method: as §1
# PKCβ1 = target: T1, PKCβ1 (Homo sapiens, UniProt P05771); experiment: Western blot, PKCβ1 expression in MCF7AC1 cells; format: cell-based; details: 1 μM, within 72 hours, drugs replenished every 24 hours
# T1 construct: western blots showing expression of PKCβ1 in MCF7AC1 cells treated with 1 μM concentration of the ENDX-PROTACs or ENDX; endogenous in cells; host or cells: MCF7AC1 (ER+ breast cancer cells)
# Method: For western blotting analysis, cells were treated with vehicle (DMSO) or 1 μM of the indicated ENDX-PROTAC's or parent drug ENDX for 24, 48 and 72 hours with the drugs replenished every 24 hours. 25 μg of protein lysates were run on 10% Bis-Tris XT Criterion precast SDS-PAGE gels and transferred on to PVDF membrane. Following blocking with TB ST-5% milk, the membranes were probed with primary antibodies (1:500 — 1:2000 dilutions) for PKCβ1 (Abcam #136917), ERα (SC #8002), E2F1 (SC #251) and Actin (CS#8457) in TBST-5% BSA and secondary antibodies (1:2000 dilution) in TBST-5% milk. Membranes were developed using chemiluminescent WestPico or WestFemto detection solutions on the Li-Cor Imaging system.
# [1] = system: ER-stress induced UPR pathway; experiment: Western blot of UPR pathway proteins in MDA-MB-231 cells; format: cell-based; details: 1 μM
# Method: Triple negative breast cancer MDA-MB-231 cells were cultured in phenol-red free DMEM/F12 medium supplemented with 10% FBS and 1% AA. Cells were plated at 1×10^6 cells per 10 cm dish. The next day, the cells were treated with DMSO, 1 μM Pr-7 or 1 μM ENDX for 1, 8, 24, and 48 hours, and were then processed for RNA and RIPA protein analysis.
# For western blotting, 30 μg of protein lysates were run on Criterion precast 10% Bis-Tris gel, transferred to PVDF membrane, incubated in TBST-5% milk for one hour followed by overnight incubation with phospho-IRE1α (Sigma SAB5700519, rabbit, 1:1000), IRE1α (CS3294, rabbit, 1:1000), phospho-eIF2α (CS3398, rabbit, 1:1000), eIF2α (CS5324, rabbit, 1:1000), CHOP (CS2895, mouse, 1:1000), PUMA (SC374223, mouse, 1:200), NOXA (CS14766, rabbit, 1:1000), E2F1 (SC251, mouse, 1:250), BCL2 (SC7382, 1:200), cleaved PARP (CS5625, rabbit, 1:1000), PARP (CS9542, rabbit, 1:1000), PKCβ1 (SC8049, mouse, 1:200), PKCδ (CS2058, rabbit, 1:1000) and Actin (Sigma A2228, mouse, 1:10,000) primary antibodies in TBST-5% BSA solution. Membranes were washed in TBS-T, incubated for one-hour in HRP-linked anti-rabbit or anti-mouse secondary antibodies in TBST-5% milk, and washed with TBS-T. Bands were developed using west-pico or west-femto chemiluminescent substrate reagents.
# [2] = Pharmacokinetics in mice, plasma by UPLC-MS/MS; format: in vivo, female CD1 mice; details: for Concentration ENDX PROTAC 7: mouse plasma
# Method: ENDX PROTAC 7 and PROTAC 9 pharmacokinetics were characterized in female CD1 mice. Blood samples were collected from mice anesthetized under isoflurane via retro-orbital eye bleed into tubes containing EDTA and immediately chilled on ice. NaF was added to the EDTA collection tubes to help stabilize the drug in whole blood for the second IV and IP studies with ENDX PROTAC 9, and for the IV and oral studies with PROTAC 7. Plasma and red blood cells were separated immediately by centrifugation in a refrigerated centrifuge at 4° C. The plasma was transferred to a separate tube and immediately frozen at −20° C.
# For IV dosing, ENDX PROTAC 9 was dissolved in 10% DMSO, 10% PEG 400, and 80% normal saline for a final concentration of 0.2 mg/mL ENDX PROTAC 9 for the 1 mg/kg IV doses. ENDX PROAC 7 was dissolved in 15% DMSO, 9.44% PEG400, and […] normal saline for a final concentration of 0.19 mg/mL for the 1 mg/kg IV doses. Blood samples (3 mice per time-point) were collected 5 minutes, 15 minutes, 0.5 hour, 1 hour, 2 hours, 4 hours, 8 hours, and 24 hours after administration of the ENDX PROTAC. A second IV study was performed for ENDX PROTAC 9 in which blood samples (3 mice per time-point) were collected 5 minutes, 15 minutes, 1 hour, and 2 hours after administration of ENDX PROTAC 9. For oral dosing, ENDX PROTAC 9 (10 mg/kg) and ENDX PROTAC 7 (10 mg/kg) were suspended in 1 mM ascorbic acid:PEG400, 1:1 v/v for a final concentration of 1.0 mg/mL ENDX PROTAC. Blood samples (three mice per time-point) were collected 15 minutes, 0.5 hour, 1 hour, 2 hours, 4 hours, 6 hours, 8 hours, and 24 hours after administering the ENDX PROTAC. For LP. dosing, ENDX PROTAC 9 (4 mg/kg) was prepared in 1 mM ascorbic acid:PEG400, 1:1 v/v for a final concentration of 0.4 mg/mL ENDX PROTAC 9. Blood samples (three mice per time-point) were collected 15 minutes, 0.5 hour, 1 hour, 2 hours, 4 hours, 6 hours, 8 hours, and 24 hours after administration. Plasma concentrations of ENDX PROTAC 7 and 9 were measured using UPLC-MS/MS.
# [3] = mice, oral 10 mg/kg, NaF in tubes
# T1 sequence (P05771 whole entry): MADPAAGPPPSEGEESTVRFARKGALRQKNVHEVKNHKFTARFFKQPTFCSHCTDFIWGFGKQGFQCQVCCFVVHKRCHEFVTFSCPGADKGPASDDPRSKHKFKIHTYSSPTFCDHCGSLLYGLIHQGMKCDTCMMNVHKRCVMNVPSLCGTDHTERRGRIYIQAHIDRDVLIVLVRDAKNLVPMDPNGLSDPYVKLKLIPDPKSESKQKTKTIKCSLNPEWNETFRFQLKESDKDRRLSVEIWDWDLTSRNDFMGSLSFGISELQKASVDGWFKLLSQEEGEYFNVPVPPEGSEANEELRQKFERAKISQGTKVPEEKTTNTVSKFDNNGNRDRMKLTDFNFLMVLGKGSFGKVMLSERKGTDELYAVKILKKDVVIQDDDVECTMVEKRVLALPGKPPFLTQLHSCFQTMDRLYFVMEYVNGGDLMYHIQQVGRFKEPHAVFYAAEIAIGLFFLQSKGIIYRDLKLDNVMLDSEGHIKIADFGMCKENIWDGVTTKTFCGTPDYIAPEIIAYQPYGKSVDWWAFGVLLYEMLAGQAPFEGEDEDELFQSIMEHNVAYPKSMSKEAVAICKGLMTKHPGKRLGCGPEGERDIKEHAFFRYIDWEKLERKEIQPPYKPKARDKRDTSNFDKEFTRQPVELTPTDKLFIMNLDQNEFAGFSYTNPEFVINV
compound,measurement,setting,value
CC/C(=C(\c1ccc(O)cc1)c1ccc(OCCN(C)C(=O)COCCNC(=O)Cc2ccc3c(c2)CN(C2CCC(=O)NC2=O)C3=O)cc1)c1ccccc1 (stereo not drawn) [TC-Pr-007],IC50,MDAMB436 cells,40 nM
same,IC50,BT549 cells,43 nM
same,PKCβ1 polypeptide degradation,PKCβ1,rapidly degraded PKCβ1 polypeptides
same,E2F1 expression,[1],downregulation
same,E2F7 activation,[1],activated E2F7
same,PARP cleavage,[1],increased PARP cleavage
same,expression of anti-apoptotic protein BCL2,[1],downregulated
same,activation of ER-stress induced UPR pathway,[1]; 1-48 hours,robustly activated multiple components
same,Concentration ENDX PROTAC 7,"[2]; IV (1 mg/kg), 15 minutes, listed as ENDX PROTAC 7, 1 mg/kg",37.27 ng/mL and 57.95 ng/mL and 30.96 ng/mL
same,Concentration ENDX PROTAC 7,"[2]; IV (1 mg/kg), 30 minutes, listed as ENDX PROTAC 7, 1 mg/kg",10.89 ng/mL and 19.85 ng/mL and 16.62 ng/mL
same,Concentration ENDX PROTAC 7,"[2]; IV (1 mg/kg), 120 minutes, listed as ENDX PROTAC 7, 1 mg/kg",8.35 ng/mL and 9.53 ng/mL and 8.69 ng/mL
same,Concentration ENDX PROTAC 7,"[2]; PO (10 mg/kg), 15 minutes, listed as ENDX PROTAC 7, 10 mg/kg",0.75 ng/mL and 0.7 ng/mL and 0.93 ng/mL
same,Concentration ENDX PROTAC 7,"[2]; PO (10 mg/kg), 30 minutes, listed as ENDX PROTAC 7, 10 mg/kg",0.64 ng/mL and 0.81 ng/mL and 0.83 ng/mL
same,Concentration ENDX PROTAC 7,"[2]; PO (10 mg/kg), 360 minutes, listed as ENDX PROTAC 7, 10 mg/kg",0.53 ng/mL and 0.4 ng/mL and 0.44 ng/mL
same,Concentration ENDX PROTAC 7,"[2]; PO (10 mg/kg), 480 minutes, listed as ENDX PROTAC 7, 10 mg/kg",0.69 ng/mL and 0.37 ng/mL and 0.4 ng/mL
same,elimination half-life,"[2]; mice, I.V. 1 mg/kg, NaF in tubes",5 h
same,peak plasma concentration,"[2]; mice, IV 1 mg/kg, NaF in tubes",129.7 ng/mL
same,time of peak plasma concentration,"[2]; mice, IV 1 mg/kg, NaF in tubes",≤ 5 min
same,Oral bioavailability,"[2]; mice, oral 10 mg/kg vs IV 1 mg/kg, NaF in tubes",0.85%
same,peak plasma concentration,[2]; [3],1.24 ng/mL
same,time of peak plasma concentration,[2]; [3],≤ 60 min
